Laboratory results published in patent publication US12281057B2 (VERTEX PHARMACEUTICALS INCORPORATED, priority 2017, dated 2025).

Target: truncated form of human NaV 1.8 with full channel activity (Homo sapiens, UniProt Q9Y5Y9)
Experiment: E-VIPR Assay Method A for detecting and measuring Nav inhibition (HEK cells, membrane potential FRET dyes, electrical stimulation)
Type: cell-based
Settings: HEK cells expressing human NaV 1.8, HS (human serum) in compound loading buffer, 11 point dose response, top dose 3 μM, Table 20, read-out: Nav 1.8 MedChem Optical Assay EVIPR Assay Method A HS IC50
Excerpt: E-VIPR Assay Method A for Detecting and Measuring Nav Inhibition Properties Sodium ion channels are voltage-dependent proteins that can be activated by inducing membrane voltage changes by applying electric fields. The electrical stimulation instrument and methods of use, referred to as E-VIPR, are described in International Publication No. WO 2002/008748 A3 and C.-J. Huang et al. Characterization of voltage-gated sodium channel blockers by electrical stimulation and fluorescence detection of membrane potential, 24 Nature Biotech. 439-46 (2006), both of which are incorporated by reference in their entirety. The instrument comprises a microtiter plate handler, an optical system for exciting the coumarin dye while simultaneously recording the coumarin and oxonol emissions, a waveform generator, a current- or voltage-controlled amplifier, and parallel electrode pairs that are inserted into assay plate wells. Under integrated computer control, this instrument passes user-programmed electrical stimulus protocols to cells within the wells of the microtiter plate. […] Sigma #F4135), 1% NEAA (Non-Essential Amino Acids, Life Tech #11140), 1% HEPES (Life Tech #15630), 1% Pen-Strep (Penicillin-Streptomycin; […] Cells were expanded in vented cap flasks, with 95% humidity and 5% CO2. Reagents and Stock Solutions: • 100 mg/mL Pluronic F-127 (Sigma #P2443), in dry DMSO • Compound Plates: […] 5% KIR 2.1 Bacmam virus (produced in-house), prepared as described in Section 3.3 of J. A. […] The solution was made by adding 10% Pluronic F127 stock equal to combined volumes of CC2-DMPE and DiSBAC6(3). The order of preparation was first mix Pluronic and CC2-DMPE, then add DiSBAC6(3), then while vortexing add Bath1/β-Cyclodextrin. […] Assay Protocol: […] Final DMSO concentration for all wells in the assay was 0.625% (0.75% DMSO was supplemented to the Compound Loading Buffer for a final DMSO concentration of 0.625%). […] 3) Cell plates were prepared. On the day of the assay, the media was aspirated, and the cells were washed three times with 80 μL of Bath-1 buffer, maintaining 25 μL residual volume in each well. 4) 25 μL per well of Hexyl Dye Solution was dispensed into the cell plates. The cells were incubated for 20 minutes at room temp or ambient conditions in darkness. 5) 80 μL per well of Compound Loading Buffer was dispensed into compound plates. 6) The cell plates were washed three times with 80 μL per well of Bath-1 Buffer, leaving 25 µL of residual volume. Then 25 uL per well from compound plate was transferred to each cell plate. The mixture was incubated for 30 minutes at room temp/ambient conditions. 7) The plate was read on E-VIPR using the current-controlled amplifier to deliver stimulation wave pulses using the following protocol: 1.25 Amps, 2.5 ms pulse width biphasic waveform, 10 Hz for 10 seconds at a scan rate of 200 Hz. A pre-stimulus recording was performed for 0.5 seconds to obtain the un-stimulated intensities baseline. The stimulatory waveform was followed by 0.5 seconds of post-stimulation recording to examine the relaxation to the resting state. Data Analysis: Data were analyzed and reported as normalized ratios of emission intensities measured in the 460 nm and 580 nm channels. The response as a function of time was reported as the ratios obtained using the following formula: […] The data were further reduced by calculating the initial (Ri) and final (Rf) ratios. These were the average ratio values during part or all of the pre-stimulation period and during sample points during the stimulation period. The fluorescence ratio (Rf/Ri) was then calculated and reported as a function of time. Control responses were obtained by performing assays in the presence of the positive control, and in the absence of pharmacological agents (DMSO vehicle negative control). Responses to the negative (N) and positive (P) controls were calculated as above. The compound antagonist % activity A was then defined as: [formula] where X is the ratio response of the test compound. […]

Sequence of truncated form of human NaV 1.8 with full channel activity (Q9Y5Y9 126-1722 limits assumed): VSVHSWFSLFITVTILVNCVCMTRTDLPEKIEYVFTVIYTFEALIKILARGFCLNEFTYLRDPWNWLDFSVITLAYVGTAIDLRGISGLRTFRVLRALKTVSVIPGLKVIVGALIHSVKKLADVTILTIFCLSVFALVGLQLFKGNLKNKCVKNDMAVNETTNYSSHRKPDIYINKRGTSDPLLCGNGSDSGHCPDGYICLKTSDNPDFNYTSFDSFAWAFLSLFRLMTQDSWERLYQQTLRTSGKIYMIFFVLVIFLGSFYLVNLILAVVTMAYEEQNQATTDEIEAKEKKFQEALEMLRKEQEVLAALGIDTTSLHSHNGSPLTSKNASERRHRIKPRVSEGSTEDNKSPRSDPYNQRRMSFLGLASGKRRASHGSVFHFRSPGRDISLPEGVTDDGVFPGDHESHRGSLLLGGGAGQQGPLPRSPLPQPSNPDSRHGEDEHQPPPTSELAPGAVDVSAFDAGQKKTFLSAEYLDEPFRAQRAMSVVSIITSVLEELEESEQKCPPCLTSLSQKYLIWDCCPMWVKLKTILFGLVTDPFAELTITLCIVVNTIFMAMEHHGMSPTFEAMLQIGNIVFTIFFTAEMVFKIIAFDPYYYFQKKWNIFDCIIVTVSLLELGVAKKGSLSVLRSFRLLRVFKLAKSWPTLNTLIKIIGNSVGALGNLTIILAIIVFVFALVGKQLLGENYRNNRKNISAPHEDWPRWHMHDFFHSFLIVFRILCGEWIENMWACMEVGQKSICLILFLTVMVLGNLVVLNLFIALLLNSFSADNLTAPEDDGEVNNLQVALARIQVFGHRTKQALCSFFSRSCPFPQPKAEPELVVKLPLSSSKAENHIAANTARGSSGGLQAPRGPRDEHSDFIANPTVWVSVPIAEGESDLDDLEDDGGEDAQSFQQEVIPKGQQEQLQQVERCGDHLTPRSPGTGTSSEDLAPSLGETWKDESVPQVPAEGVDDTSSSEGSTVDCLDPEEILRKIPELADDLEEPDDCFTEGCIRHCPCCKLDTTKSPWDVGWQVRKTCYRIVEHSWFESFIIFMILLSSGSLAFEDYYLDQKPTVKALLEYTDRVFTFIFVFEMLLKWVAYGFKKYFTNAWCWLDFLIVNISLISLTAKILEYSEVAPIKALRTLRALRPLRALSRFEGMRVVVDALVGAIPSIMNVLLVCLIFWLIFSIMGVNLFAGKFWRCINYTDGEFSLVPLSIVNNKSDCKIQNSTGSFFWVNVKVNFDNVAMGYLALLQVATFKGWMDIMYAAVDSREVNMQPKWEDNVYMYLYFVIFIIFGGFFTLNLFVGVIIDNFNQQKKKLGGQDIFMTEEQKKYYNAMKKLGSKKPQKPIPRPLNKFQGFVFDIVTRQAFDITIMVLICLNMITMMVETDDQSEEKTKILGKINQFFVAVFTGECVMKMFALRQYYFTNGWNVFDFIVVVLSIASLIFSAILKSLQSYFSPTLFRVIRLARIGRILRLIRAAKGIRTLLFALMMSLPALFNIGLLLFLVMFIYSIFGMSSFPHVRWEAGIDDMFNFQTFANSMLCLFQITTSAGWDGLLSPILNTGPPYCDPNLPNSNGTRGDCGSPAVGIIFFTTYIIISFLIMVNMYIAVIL

Row | IC50 [nM] | Structure (SMILES)
1 | 14 | COc1cc(OC(F)(F)F)ccc1Oc1cc(C(F)(F)F)c(F)cc1C(=O)Nc1ccc(F)c(C(N)=O)c1 [Compound 23, N-(3-carbamoyl-4-fluoro-phenyl)-5-fluoro-2-[2-methoxy-4-(trifluoromethoxy)phenoxy]-4-(trifluoromethyl)benzamide]
2 | 4 | NC(=O)c1cc(NC(=O)c2c(Oc3ccc(OC(F)(F)F)cc3OC(F)F)ccc(C(F)(F)F)c2F)ccn1 [Compound 13, 4-[[6-[2-(difluoromethoxy)-4-(trifluoromethoxy)phenoxy]-2-fluoro-3-(trifluoromethyl)benzoyl]amino]pyridine-2-carboxamide]
3 | 3 | Cc1cc(OC(F)(F)F)ccc1Oc1ccc(C(F)(F)F)c(F)c1C(=O)Nc1ccc(F)c(C(N)=O)c1 [Compound 10, N-(3-carbamoyl-4-fluoro-phenyl)-2-fluoro-6-[2-methyl-4-(trifluoromethoxy)phenoxy]-3-(trifluoromethyl)benzamide]

Same assay, conditions: HEK cells expressing human NaV 1.8, HS (human serum) in compound loading buffer, 11 point dose response, top dose 3 μM, Table 20A, read-out: Nav 1.8 MedChem Optical Assay EVIPR Assay Method A HS IC50

Row | Structure (SMILES) | IC50 [nM]
4 | [2H]C([2H])([2H])Oc1cc(OC(F)(F)F)ccc1Oc1ccc(C(F)(F)F)c(F)c1C(=O)Nc1cnc(C(N)=O)cc1C [Compound 161, 5-[[2-fluoro-6-[2-(trideuteriomethoxy)-4-(trifluoromethoxy)phenoxy]-3-(trifluoromethyl)benzoyl]amino]-4-methyl-pyridine-2-carboxamide] | 150
5 | COc1cc(OC(F)(F)F)ccc1Oc1cncc(F)c1C(=O)Nc1ccnc(C(N)=O)c1 [Compound 165, N-(2-Carbamoyl-4-pyridyl)-3-fluoro-5-[2-methoxy-4-(trifluoromethoxy)phenoxy]pyridine-4-carboxamide] | 340
6 | NC(=O)c1cc(NC(=O)c2c(Oc3ccc(OC(F)(F)F)cc3)ccc(F)c2F)ccc1F [Compound 63, N-(3-Carbamoyl-4-fluoro-phenyl)-2,3-difluoro-6-[4-(trifluoromethoxy)phenoxy]benzamide] | 140
7 | COc1cc(OC(F)(F)F)ccc1Oc1cc(C(F)(F)F)ncc1C(=O)Nc1cc(C)nc(C(N)=O)c1 [Compound 84, 4-[[4-[2-Methoxy-4-(trifluoromethoxy)phenoxy]-6-(trifluoromethyl)pyridine-3-carbonyl]amino]-6-methyl-pyridine-2-carboxamide] | 580
8 | NC(=O)c1cc(NC(=O)c2c(Oc3ccc(OC(F)(F)F)cc3)ccc(C(F)(F)F)c2F)ccc1Cl [Compound 134, N-(3-carbamoyl-4-chloro-phenyl)-2-fluoro-6-[4-(trifluoromethoxy)phenoxy]-3-(trifluoromethyl)benzamide] | 68
9 | NC(=O)c1cc(NC(=O)c2c(Oc3ccc(OC(F)(F)F)cc3O)ccc(C(F)(F)F)c2F)ccc1F [Compound 142, N-(3-Carbamoyl-4-fluoro-phenyl)-2-fluoro-6-[2-hydroxy-4-(trifluoromethoxy)phenoxy]-3-(trifluoromethyl)benzamide] | 310
10 | COc1cc(F)ccc1-c1cnc(C(F)(F)F)cc1C(=O)Nc1ccc(F)c(C(N)=O)c1 [Compound 200, N-(3-carbamoyl-4-fluoro-phenyl)-5-(4-fluoro-2-methoxy-phenyl)-2-(trifluoromethyl)pyridine-4-carboxamide] | > 3100
11 | COc1cc(OC(F)(F)F)ccc1Oc1cncc(OC)c1C(=O)Nc1ccc(F)c(C(N)=O)c1 [Compound 138, N-(3-Carbamoyl-4-fluoro-phenyl)-3-methoxy-5-[2-methoxy-4-(trifluoromethoxy)phenoxy]pyridine-4-carboxamide] | 1400

Results, then the compound that gave them:

Row | IC50 [nM] | Structure (SMILES)
12 | 10 | [2H]C([2H])([2H])Oc1cc(OC(F)(F)F)ccc1Oc1cc(Cl)cc(Cl)c1C(=O)Nc1ccnc(C(N)=O)c1 [Compound 179, 4-[[2,4-Dichloro-6-[2-(trideuteriomethoxy)-4-(trifluoromethoxy)phenoxy]benzoyl]amino]pyridine-2-carboxamide]
13 | 23 | NC(=O)c1cc(NC(=O)c2c(Oc3ccc(OC(F)(F)F)cc3)ccc(Cl)c2F)ccc1F [Compound 73, N-(3-Carbamoyl-4-fluoro-phenyl)-3-chloro-2-fluoro-6-[4-(trifluoromethoxy)phenoxy]benzamide]
14 | 15 | COc1cc(OC(F)(F)F)ccc1Oc1cc(C2C[C@@H]2C)ncc1C(=O)Nc1ccc(F)c(C(N)=O)c1 (mixture of isomers) [Compound 106, Racemic trans-N-(3-Carbamoyl-4-fluoro-phenyl)-4-[2-methoxy-4-(trifluoromethoxy)phenoxy]-6-(2-methylcyclopropyl)pyridine-3-carboxamide]
15 | 43 | COc1cc(OC(F)(F)F)ccc1Oc1cc([C@@H]2C[C@H]2C)ncc1C(=O)Nc1ccnc(C(N)=O)c1 (single isomer, unassigned) [Compound 112]
16 | 11 | [2H]C([2H])([2H])Oc1c(Oc2ccc(Cl)c(F)c2C(=O)Nc2cc(C(N)=O)ncc2C)ccc(OC(F)(F)F)c1F [Compound 240, 4-[[3-chloro-2-fluoro-6-[3-fluoro-2-(trideuteriomethoxy)-4-(trifluoromethoxy)phenoxy]benzoyl]amino]-5-methyl-pyridine-2-carboxamide]
17 | 38 | NC(=O)c1cc(NC(=O)c2c(Oc3ccc(OC(F)(F)F)cc3)cnc(C(F)(F)F)c2F)ccn1 [Compound 61, N-(2-Carbamoyl-4-pyridyl)-3-fluoro-5-[4-(trifluoromethoxy)phenoxy]-2-(trifluoromethyl)pyridine-4-carboxamide]
18 | 51 | NC(=O)c1cc(NC(=O)c2c(Oc3ccc(F)cc3)ccc(C(F)(F)F)c2F)ccn1 [Compound 50, 4-[[2-fluoro-6-(4-fluorophenoxy)-3-(trifluoromethyl)benzoyl]amino]pyridine-2-carboxamide]
19 | 50 | [2H]C([2H])([2H])Oc1cc(OC(F)(F)F)ccc1Oc1ccc(C(F)(F)F)c(F)c1C(=O)Nc1ccc(C(=O)NC)nc1 [Compound 209, 5-[[2-fluoro-6-[2-(trideuteriomethoxy)-4-(trifluoromethoxy)phenoxy]-3-(trifluoromethyl)benzoyl]amino]-N-methyl-pyridine-2-carboxamide]
20 | 40 | COc1cc(OC(F)(F)F)ccc1Oc1cc(C2CC2)ncc1C(=O)Nc1ccc(F)c(C(N)=O)c1 [Compound 43, N-(3-Carbamoyl-4-fluoro-phenyl)-6-cyclopropyl-4-[2-methoxy-4-(trifluoromethoxy)phenoxy]pyridine-3-carboxamide]
21 | 7 | Cc1cc(OC(F)(F)F)ccc1Oc1ccc(C(F)(F)F)c(F)c1C(=O)Nc1ccnc(C(N)=O)c1 [Compound 59, 4-[[2-fluoro-6-[2-methyl-4-(trifluoromethoxy)phenoxy]-3-(trifluoromethyl)benzoyl]amino]pyridine-2-carboxamide]
22 | 56 | COc1cc(OC(F)(F)F)ccc1Oc1cc2c(cc1C(=O)Nc1ccc(F)c(C(N)=O)c1)OC(F)(F)O2 [Compound 122, N-(3-Carbamoyl-4-fluoro-phenyl)-2,2-difluoro-6-[2-methoxy-4-(trifluoromethoxy)phenoxy]-1,3-benzodioxole-5-carboxamide]
23 | 2 | [2H]C([2H])([2H])Oc1c(Oc2ccc(C(F)(F)F)c(F)c2C(=O)Nc2cc(C(N)=O)ncc2C)ccc(OC(F)(F)F)c1F [Compound 227, 4-[[2-Fluoro-6-[3-fluoro-2-(trideuteriomethoxy)-4-(trifluoromethoxy)phenoxy]-3-(trifluoromethyl)benzoyl]amino]-5-methyl-pyridine-2-carboxamide]
